Data: paper PMC12534982 (Journal of Experimental & Clinical Cancer Research : CR, 2025)

Legend:
[1] = test system: colorectal cancer cells; assay: Oxidative stress (CellROX Deep Red); type: cell-based, human
Experimental: Cancer cells (1 × 10^3) were cultured in 8-well collagen IV Ibidi chamber slides and treated with DMSO or NK-A 17E-233I (25 µM) for 24 h. The media was replaced with fresh media containing 100 nM MitoTracker Red dye to measure ΔΨm (1 mM stock; #M7512; Thermo Fisher Scientific) and 5 µM CellROX Deep Red Reagent to assess oxidative stress levels (2.5 mM stock; #C10422; Thermo Fisher Scientific) for 45 min. The cells were then fixed with 4% methanol-free PFA, washed with PBS, and mounted with Ibidi mounting medium containing 4',6-diamidino-2-phenylindole (DAPI) prior to imaging.
The density of γ-H2AX, Rad51, ΔΨm, and oxidative stress in cancer cells was measured as described in [32], utilizing custom macros available as open access at Zenodo (https://zenodo.org/records/8387899) to obtain raw intensities and individual cell area.

[2] = test system: human colorectal cancer cell lines; assay: Cell viability assay (CellTiter-Glo); type: cell-based; conditions: dose-dependent; 48 h
[3] = test system: colorectal cancer cells; assay: Flow cytometry-based cell cycle analysis; parameters: species or system human
Experimental: Cancer cells (3 × 10^4) were cultured in 48-well plates and treated with DMSO or NK-A 17E-233I (25 µM) for 24 h. Following treatment, all wells were washed with PBS (#P4417; Sigma-Aldrich), and the cells were collected in Eppendorf tubes. The cells were harvested using 0.25% trypsin (#25200056; ThermoScientific) and 0.02% EDTA (1:1) (#17892; ThermoFisher Scientific) for 2 min, followed by the addition of DMEM. The tubes were then centrifuged at 500 × g for 5 min. The supernatant was discarded, and the pellets were fixed in 70% cold ethanol and stored at -20 °C for at least 1 h. The pellets were resuspended in 1 mL PBS and centrifuged at 500 × g at 4 °C for 5 min. The supernatant was discarded once again, and the pellets were subsequently reconstituted in a solution containing propidium iodide (PI; #25,535–16-4, Merck) and RNase (#N8080119, Applied Biosystems), followed by storage at 4 °C overnight. Cell cycle analysis was conducted using a CytoFLEX flow cytometer (Beckman Coulter; 405 nm laser). Cells were gated based on size and granularity on a forward scatter (FSC)/side scatter (SSC) plot, with cell debris excluded from the analysis. Mean fluorescence intensity from 1 × 10^4 cells was recorded. Data analysis was conducted using FlowJo software v10.8.1 (BD Life Sciences).

[4] = test system: colorectal cancer cells; assay: Cell proliferation assay (Trypan Blue exclusion); type: cell-based, human
Experimental: Cancer cells (7.5 × 10^3) were cultured in 60-mm Petri dishes and treated with DMSO or NK-A 17E-233I (25 µM) to evaluate their proliferation at various time intervals (24 h, 48 h, 96 h, 120 h) using the Trypan Blue exclusion assay.

[5] = test system: SW620 cells; assay: Lactate assay; type: cell-based, human; conditions: 25 µM, 24 h; in comparison to Brequinar (100 µM)
Experimental: This assessment was conducted utilizing a Lactate Assay Kit-WST (#L256-20; Dojindo Laboratories), in accordance with the manufacturer's protocol. Optical density measurements were recorded at 450 nm using a Victor Multilabel Plate Reader.

[6] = biological target: T1, recombinant human DHODH (full-length wild-type) (Homo sapiens, UniProt Q02127); assay: In vitro DHODH enzyme activity assay; type: biochemical; conditions: for IC50: 0.1 mM QD, mean ± SD (n = 4–6); for Ki: assuming pure competitive inhibition
T1 construct: The generation of recombinant enzymes (full-length wild-type); made in house
T1 sequence (Q02127 whole entry): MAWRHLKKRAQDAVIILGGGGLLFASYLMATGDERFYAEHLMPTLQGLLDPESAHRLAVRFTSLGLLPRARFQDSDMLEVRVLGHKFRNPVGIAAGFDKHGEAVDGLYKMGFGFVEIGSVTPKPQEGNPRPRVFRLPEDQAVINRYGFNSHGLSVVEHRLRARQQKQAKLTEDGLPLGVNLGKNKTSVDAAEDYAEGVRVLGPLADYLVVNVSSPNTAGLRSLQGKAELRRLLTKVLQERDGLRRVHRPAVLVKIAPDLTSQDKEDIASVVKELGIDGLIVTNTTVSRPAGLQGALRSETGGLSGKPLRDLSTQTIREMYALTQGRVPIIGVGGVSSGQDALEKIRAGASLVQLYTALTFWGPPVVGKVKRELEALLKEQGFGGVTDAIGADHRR
Experimental: (§1) The assays to determine the inhibition constants of inhibitors of the recombinant DHODH enzymes are described in [28, 29].
(§2) The IC50 values were determined by fitting the equation V = V max/(1 + (I/IC50)^h) to the assay data using SigmaPlot14 (Systat Software Inc.). In this equation, V represents the measured enzyme activity, while V max indicates the maximum enzyme activity reached. I denotes the inhibitor concentration, and h describes the slope of the fitted curve.

[7] = biological target: T2, Δ29 DHODH (N-truncated) (Homo sapiens, UniProt Q02127); assay: In vitro DHODH enzyme activity assay; type: biochemical; conditions: 1 mM DHO
T2 construct: N-terminal truncated form of human DHODH (Δ29), where the N-terminal transmembrane domain was removed; made in house
T2 sequence (Q02127 29-395, stated change not applied): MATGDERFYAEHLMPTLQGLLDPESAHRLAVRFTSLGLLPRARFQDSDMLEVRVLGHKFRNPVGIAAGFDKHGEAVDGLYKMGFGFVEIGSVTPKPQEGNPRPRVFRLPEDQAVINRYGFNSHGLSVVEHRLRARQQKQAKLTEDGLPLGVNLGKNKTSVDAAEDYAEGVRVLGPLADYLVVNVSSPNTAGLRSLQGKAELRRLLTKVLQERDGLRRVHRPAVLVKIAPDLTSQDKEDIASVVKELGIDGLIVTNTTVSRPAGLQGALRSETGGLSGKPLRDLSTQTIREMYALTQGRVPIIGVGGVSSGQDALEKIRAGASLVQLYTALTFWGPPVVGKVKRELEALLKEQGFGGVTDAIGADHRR
Experimental: as §1, §2

[8] = biological target: T3, DHODH R136C (Homo sapiens, UniProt Q02127, R135C); assay: In vitro DHODH enzyme activity assay; type: biochemical; conditions: 1 mM DHO
T3 construct: made in house
T3 sequence (Q02127 whole entry R135C): as the sequence (Q02127 whole entry) above, with R135C counted along it
Experimental: as §1, §2

[9] = test system: SW620 cells; assay: Intracellular nucleotides, orotate and DHO by HPLC–MS/MS; type: cell-based, human; conditions: 25 µM, 24 h
Experimental: Cancer cells (2.2 × 10^6) were cultured in 100-mm Petri dishes and treated with DMSO or NK-A 17E-233I (25 µM) for 24 h. Nucleotides and related compounds were extracted from cell pellets by treatment with 0.5 M trichloroacetic acid (TCA) followed by neutralization and solvent evaporation as detailed in [30]. Dry extracts were stored at -70°C until further analysis. Protein pellets sedimented after TCA precipitation were re-dissolved in 1 mL of 100 mM NaOH, 5% SDS by incubation at 95 °C for 5 min, followed by complete re-dissolution through several syringe strokes with a 23G needle. The concentration of the re-dissolved protein was quantified using the Pierce™ BCA Protein Assay Kit (Thermo Fisher Scientific), with the amount of the metabolites referenced to protein content.
On the day of metabolite analysis, the dry extracts were re-dissolved in 150 µL of water. Nucleotides, DHO and orotate concentrations were determined using HPLC–MS/MS using Acquity UPLC-Xevo™ TQ Mass Spectrometer (Waters, MA, USA), following the methodology described in [30]. The m/z transitions for DHO and orotate were 156.87 > 113.09 and 154.90 > 111.00, respectively. The identification of all compounds was based on retention time and specific ion transitions. The calibration curves generated with aqueous standards were processed concurrently, and the concentrations were derived from peak area interpolation using TargetLynx software (Waters, MA, USA).

[10] = median [Minimum – Maximum], five experiments
[11] = median [Minimum – Maximum], four experiments

COc1cc(C)c(Oc2cc(C)cc(O)c2O)c(O)c1 [NK-A 17E-233I]
ROS levels ([1]; HCT116, 25 µM, 24 h): significantly decreased | ROS levels ([1]; different cancer cell lines (HT-29), 25 µM): without significant effect | viability [2]: reduced the viability | cell cycle distribution ([3]; 25 µM): arrest of colorectal cancer cells in the S-phase and an increase in sub-G1 cell populations | cell cycle after washout ([3]; washout 12 h, NK-A 17E-233I 25 µM, HU 1 mM): remained arrested and/or underwent cell death | cell proliferation ([4]; 25 µM, over time): reduced | growth inhibition in the presence of physiological uridine ([4]; SW620, 25 µM, 24 h, 5 µM and 20 µM uridine): did not mitigate the growth inhibitory effects | concentration of lactate [5]: significantly reduced | mode of inhibition with respect to DHO [6]: competitive inhibitor | IC50 ([6]; 0.1 mM DHO): 28.9 ± 14.5 µM | IC50 ([6]; 1 mM DHO): 98.3 ± 42.6 µM | fold increase in the IC50 value with increasing concentrations of DHO ([6]; 1 mM vs 0.1 mM DHO): 3.4 fold | Ki ([6]; derived from the IC50 at 0.1 mM DHO): 3.9 µM | Ki ([6]; derived from the IC50 at 1 mM DHO): 1.5 µM | IC50 ([7]; mean ± SD (n = 3)): 99.1 ± 47.8 µM | average of the fitted slopes ([7]; ± SD): 1 ± 0.8 | IC50 ([8]; mean ± SD (n = 3)): 48.6 ± 30.8 µM | average of the fitted slopes ([8]; ± SD): 0.6 ± 0.2 | levels of purine nucleotides [9]: remained unchanged | ADP amount [9, 10]: 7,917 [5,048–9,389] pmoles/mg protein | AMP + ADP + ATP amount [9, 10]: 26,257 [24,352 – 27,848] pmoles/mg protein | AMP amount [9, 10]: 961 [405–2,739] pmoles/mg protein | ATP amount [9, 10]: 15,907 [14,173–21,694] pmoles/mg protein | CDP amount [9, 10]: 351 [143–504] pmoles/mg protein | CMP + CDP + CTP amount [9, 10]: 6,327 [6,028 – 10,285] pmoles/mg protein | CMP amount [9, 10]: 263 [220–707] pmoles/mg protein | CTP amount [9, 10]: 5,801 [5,142–9,519] pmoles/mg protein | GDP amount [9, 10]: 1,339 [1,008–1,566] pmoles/mg protein | GMP + GDP + GTP amount [9, 10]: 5,228 [4,902 – 7,797] pmoles/mg protein | GTP amount [9, 10]: 3,565 [3,407–6,418] pmoles/mg protein | UDP amount [9, 10]: 927 [867–1,161] pmoles/mg protein | UMP amount [9, 10]: 335 [81–424] pmoles/mg protein | UTP amount [9, 10]: 4,013 [3,397–6,651] pmoles/mg protein | GMP amount ([9]; median [Minimum – Maximum], five experiments, undetectable treated as zero): 156 [0–268] pmoles/mg protein | DHO amount [9, 11]: 26.5 [18.3–228.5] pmoles/mg protein | Orotate amount [9, 11]: 70.5 [61.7–137.1] pmoles/mg protein
